Assay results: US20240276978A1, “Method for Dispersing Live Predatory Mites of the Phytoseiulus Genus Which Are Used in Biocontrol” (Bioline Agrosciences France, priority 2020, published 2024)

Assays:
[1] = Thickening agent solution equivalent to the standard; type: physicochemical; settings: at concentration tested (g/L): alginate 10, modified corn starch 34, amylopectin 67, carrageenans 3, chitosan 100, dextrin 46, guar 2, xanthan 2, glycerol 860, konjac 4, Carbomer 940 4, Gel Maker EMU 4.4, PVP 60, carboxymethylcellulose 30, hydroxypropylcellulose 30, calcium chloride 280, potassium chloride 280, potassium sulfate 140
[2] = tested on: Phytoseiulus persimilis; test: "Toxicity" of thickening agent to persimilis at 12 hours; type: in vivo; settings: concentration tested (g/L): alginate 10, modified corn starch 34, carrageenans 3, guar 2, xanthan 2, glycerol 860, konjac 4, Carbomer 940 4, Gel Maker EMU 4.4, PVP 60, carboxymethylcellulose 30
Experimental: “Non-toxic” means less than 20% of biocontrol agents dead at the end of 12 hours.
A little solution containing the persimilis is kept in order to evaluate any possible “toxicity” at 12 hours.

Row | Structure (SMILES) | Equivalent to the standard [1] | “Toxicity” [2]
1 | OCC(O)CO [Glycerol] | Yes | Yes
2 | O=S(=O)([O-])[O-].[K+].[K+] [Potassium sulfate] | no | –
3 | [Cl-].[K+] [Potassium chloride] | No | –
4 | [Ca+2].[Cl-].[Cl-] [Calcium chloride] | No | –
